This note sets out measurements from US5340800A, “Peptide medicaments for the treatment of disease” (priority 1992, dated 1994).

The assay has as its system polymorphonuclear leukocyte adhesion to TNF activated endothelial cells. The assay is classed as cell-based, human. As to conditions: for Average % Change of PMN Adhesion to TNF Activated ECs: average over PMN donors (# donors in parentheses); for Percent Change of Adhesion: donor 140 (second line), lower part of Table 4. Here is the method:
Leukocyte adherence can be measured using several assays known in the art, and the preferred assay is described by Charo, et al., 1985, Blood, 65:473. Briefly, the assay consists of labelling leukocytes with an appropriate label, incubating them with endothelial cells and determining the number of leukocytes that adhere. Preferably the cells are labelled with a gamma ray emitting isotope and the preferred labels are ^111 Indium-oxide or ^51 chromium.
Leukocytes may be isolated from human donors using standard techniques. This generally consists of isolating blood in a physiologically balanced salt solution containing an appropriate anticoagulant, and separating the leukocytes by an appropriate separation step, preferably on Ficoll-Hypaquegradients. Contaminating erythrocytes can be removed by hypotonic lysis. The resulting leukocytes are suspended in a physiologically buffered solution, pH 7.4. The preferred physiological buffered solution is Hank's balanced salt solution that is calcium and magnesium free.
The isolated leukocytes can then be labelled by incubating them for an appropriate time, generally 15 minutes, with the desired radioisotope at a predetermined concentration. The radiolabelled cells are washed to remove unincorporated label, and then suspended in an appropriate solution to perform the adhesion assay described below.
Endothelial cells can be prepared from a number of sources and by several techniques known in the art. Preferably they are obtained from human umbilical veins using the procedure of Charo et al., above. Generally, endothelial cells are isolated by enzymatic digestion of the umbilical veins using, preferably, collagenase as described by Jaffe, E. A., et al., 1973, J. of Clin. Invest, 52:2745. The cells are grown on an appropriate tissue culture substratum, preferably gelatine-coated surfaces.
The endothelial cells may be grown in a variety of tissue culture media containing appropriate supplements such as an appropriate concentration of fetal calf serum, and other supplements/additives routinely utilized by those skilled in this art that are recognized as being favorable for endothelial cells. The endothelial cells may be passaged with a dilute solution of an appropriate protease, and if desired a metal ion chelator. Preferably a solution consisting of 0.05 to 0.25% trypsin and 0.02% EDTA is used. To ensure that the cells are indeed endothelial cells, they are tested by immunofluorescence for Factor VIII antigen, a known endothelial cell marker.
Leukocyte adherence to endothelial cell monolayers may be determined as follows. Early passage endothelial cells, generally not beyond the fifth passage, are cultured on an appropriate substratum and in a suitable cell culture medium. The culture substratum is preferably pre-coated with an appropriate substance that enhances the adherence of the endothelial cells. Several such substances are known including fibronectin, poly-L-lysine, gelatin and laminin. Fibronectin is preferred. An appropriate culture substratum is a 96 well micro titer plate, and a suitable medium is Medium 199 containing fetal calf serum and other supplements known to be beneficial for the growth and maintenance of endothelial cells that are well known to those skilled in the art. Prior to adding a predetermined number of labelled leukocytes, the endothelial cell monolayer is washed with a physiologically balanced salt solution containing a reduced amount of fetal calf serum, preferably 1%. The preferred solution is RPMI supplemented with 1% fetal calf serum.
The endothelial cell monolayer containing added leukocytes is incubated for a time sufficient to permit maximum adherence of the leukocytes, and preferably this is conducted at 37° C. for 30 minutes in an appropriate cell culture atmosphere. Generally this would consist of growing and incubating the cells for the assay period in 5% CO2, 95% air, and 95% humidity. […]

Like-named read-outs stand apart in the source and are kept apart here. No end group written: not given here.

As to “AHKLAENNIQPIFAVT [Peptide 2-16, NH2 --Ala--His--Lys--Leu--Ala--Glu--Asn--Asn--Ile--Gln--Pro--Ile--Phe--Ala--Val--Thr--COOH]”, the “Average % Change of PMN Adhesion to TNF Activated ECs” value (“Average % Change of PMN Adhesion” for short) runs as follows: (10^-4 M) -7%; (10^-6 M) -1%; (10^-8 M) -2%.

For the sequence “CRIARLEEKVKTLKAQNSELASTANMLREQVAQLKQKVMNHA [WT, NH2 --Cys--Arg--Ile--Ala--Arg--Leu--Glu--Glu--Lys--Val--Lys--Thr--Leu--Lys--Ala--Gln--Asn--Ser--Glu--Leu--Ala--Ser--Thr--Ala--Asn--Met--Leu--Arg--Glu--Gln--Val--Ala--Gln--Leu--Lys--Gln--Lys--Val--Met--Asn--His--Ala--COOH, reference compound]”, the “activity on PMN adhesion at 10^-4 M (in words)” value (10^-4 M) is given as “inhibited polymorphonuclear leukocyte adhesion”. The “Average % Change of PMN Adhesion” value is -54% (10^-4 M); 0% (10^-5 M); “+22%” (10^-6 M); “+8%” (10^-7 M); -15% (10^-8 M).

Take “DAPEGGLDAMMQVA [Peptide 5-14, NH2 --Asp--Ala--Pro--Glu--Gly--Gly--Leu--Asp--Ala--Met--Met--Gln--Val--Ala--COOH]”: the “Average % Change of PMN Adhesion” value reads like this: (10^-4 M) “+9%”; (10^-6 M) “+7%”; (10^-8 M) 0%.

In the case of “DGFHFAGDGKLGAI [Peptide 4-14, NH2 --Asp--Gly--Phe--His--Phe--Ala--Gly--Asp--Gly--Lys--Leu--Gly--Ala--Ile--COOH]”, the “inhibitory activity in the PMN adhesion assay (in words)” value is “little activity”. Further, the “Average % Change of PMN Adhesion” value (10^-4 M) is reported as -9%. Besides, the “Average % Change of PMN Adhesion” value (10^-5 M) is reported as “+28%”. Besides, the “Average % Change of PMN Adhesion” value (10^-6 M) is -4%. The “Average % Change of PMN Adhesion” value (10^-7 M) is listed as “+12%”. Moreover, under “10^-8 M”, the “Average % Change of PMN Adhesion” value is on record as -6%.

Turning to “IGWRNVTRLLVFATD [Peptide 4-15, NH2 --Ile--Gly--Trp--Arg--Asn--Val--Thr--Arg--Leu--Leu--Val--Phe--Ala--Thr--Asp--COOH]”, the “concentration of peak inhibitory activity in the PMN adhesion assay” value was 10^4 to 10^-5 M and the “inhibitory activity in the PMN adhesion assay (in words)” value is “active”. Further, for the setting “10^-5 M (first column (so in the source))”, the “Percent Change of Adhesion” value is listed as -53%. In addition, the “Percent Change of Adhesion, Average” value (10^-5 M, average of donors 140, 195, 363, 515, 140) is given as -5 ± 3%. Also, under “10^-5 M”, the “Percent Change of Adhesion” value turned out to be 0%. Besides, the “Percent Change of Adhesion, Average” value (10^-6 M, average of donors 140, 195, 363, 515, 140) is reported as -6 ± 2%. For the same sequence, the “Percent Change of Adhesion, Average” value (1000.0) is -17 ± 2%. In addition, the “Percent Change of Adhesion, Average” value (100000.0) is on record as -58 ± 7%.

Take “KTVLPFVNTHPDKLRN [Peptide 6-16, NH2 --Lys--Thr--Val--Leu--Pro--Phe--Val--Asn--Thr--His--Pro--Asp--Lys--Leu--Arg--Asn--COOH]”: the “Average % Change of PMN Adhesion” value reads like this: (10^-4 M) “+6%”; (10^-6 M) -11%; (10^-8 M) -25%.

Regarding “RIARLEEKVKTLKAENSELASTANMLREEVAQLEQEVMNHA [Peptide 2X, NH2 --Arg--Ile--Ala--Arg--Leu--Glu--Glu--Lys--Val--Lys--Thr--Leu--Lys--Ala--Glu--Asn--Ser--Glu--Leu--Ala--Ser--Thr--Ala--Asn--Met--Leu--Arg--Glu--Glu--Val--Ala--Gln--Leu--Glu--Gln--Glu--Val--Met--Asn--His--Ala--COOH, reference compound]”, the “concentration range over which the peptide had activity on PMN adhesion” value was 10^-4 to 10^-8 M. Where the note is “10^-4 M”, the “Average % Change of PMN Adhesion” value is -38%. Further, where the note is “10^-5 M”, the “Average % Change of PMN Adhesion” value was -1%. Under “10^-7 M”, the “Average % Change of PMN Adhesion” value was -23%. Besides, the “Average % Change of PMN Adhesion” value (10^-8 M) is listed as -20%.
